Test results: patent EP4603105A1, “PHARMACEUTICAL COMPOSITION CONTAINING CYCLIC COMPOUND HAVING SELECTIVE KRAS INHIBITORY EFFECT AGAINST HRAS AND NRAS” (CHUGAI SEIYAKU KABUSHIKI KAISHA, priority 2022, dated 2024)
*1 amine or outer side, *2 acyl side, *3 side chain or, on linkers, in order; H or OH if unused. Where a SMILES comes first, the peptide text is derived from it. Bridges are numbered along the chain shown (N, C = ends). [ ]: non-standard residue; d: D form. The star is where a group is joined. hPhe(3-Cl-4-CF3) = N[C@@H](CCc1ccc(C(F)(F)F)c(Cl)c1)C(=O)O; NPrPhe(4-CF3) = CCCN[C@@H](Cc1ccc(C(F)(F)F)cc1)C(=O)O; NEtAsp = CCN([C@@H](CC(=O)[*:3])C(=O)[*:2])[*:1]; NMeGly(cPent) = CN[C@H](C(=O)O)C1CCCC1; Ac4c(3,3-Me2) = CC1(C)CC(N)(C(=O)O)C1; NMeNva(3-Et) = CCC(CC)[C@H](NC)C(=O)O; NEtLeu = CCN[C@@H](CC(C)C)C(=O)O; NMeD = CN[C@@H](CC(=O)O)C(=O)O; NMeL = CN[C@@H](CC(C)C)C(=O)O; NMeNva = CCC[C@H](NC)C(=O)O; Morpholide = C1CN(*)CCO1; NMeA = CN[C@@H](C)C(=O)O; Ac5c = NC1(C(=O)O)CCCC1; Aze = O=C(O)[C@@H]1CCN1; Ac4c = NC1(C(=O)O)CCC1; NEtG = CCNCC(=O)O; Sar = CNCC(=O)O; Propyl = CCC*

How the values were obtained:
HRAS wild-type protein = HRAS wild-type protein (Homo sapiens, UniProt P01112); test: Binding to HRAS by surface plasmon resonance (SPR), KD and KD ratio to KRAS; settings: ratio of the KD value with respect to HRAS wild-type protein to the KD value with respect to KRAS
Sequence of HRAS wild-type protein (P01112 whole entry): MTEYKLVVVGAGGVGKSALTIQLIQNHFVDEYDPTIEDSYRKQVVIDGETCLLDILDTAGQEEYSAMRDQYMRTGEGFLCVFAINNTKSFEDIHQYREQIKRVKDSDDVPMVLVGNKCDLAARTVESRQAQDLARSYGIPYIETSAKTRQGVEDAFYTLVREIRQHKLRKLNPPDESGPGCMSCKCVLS
Summary of the method: (§1)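 Affinity is measured by surface plasmon resonance at 30°C against captured, GDP-loaded RAS carrying a biotinylated Avi tag. Compounds are titrated by single-cycle kinetics, and KD comes from a 1:1 fit.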

[1] = system: human lung cancer strain NCI-H441; format: cell-based
Summary of the method: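 Readout: […] after the ATP-based reagent. Compound: serial dilutions in dimethyl sulfoxide.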

[2] = molecular target: GDP-bound NRAS wild-type protein (Homo sapiens, UniProt P01111); test: Binding to NRAS by surface plasmon resonance (SPR), KD and KD ratio to KRAS; settings: ratio of the KD value with respect to GDP-bound NRAS wild-type protein to the KD value with respect to KRAS
Sequence of GDP-bound NRAS wild-type protein (P01111 whole entry): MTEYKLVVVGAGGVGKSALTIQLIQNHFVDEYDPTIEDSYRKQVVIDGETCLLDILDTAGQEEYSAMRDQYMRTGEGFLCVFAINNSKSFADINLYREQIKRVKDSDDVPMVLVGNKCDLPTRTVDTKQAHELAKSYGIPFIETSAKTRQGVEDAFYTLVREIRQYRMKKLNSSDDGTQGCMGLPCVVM
Summary of the method: as §1

Row | SMILES | IC50 [1] | HRAS /KRAS (HRAS wild-type protein) | NRAS /KRAS [2]
1 | CCC[C@H]1C(=O)N[C@@H]([C@@H](C)CC)C(=O)N(C)[C@@H](C)C(=O)N2CC[C@H]2C(=O)N(CCC)[C@@H](Cc2ccc(C(F)(F)F)cc2)C(=O)N(C)CC(=O)N[C@@H](CCc2ccc(C(F)(F)F)c(Cl)c2)C(=O)N2CCC[C@H]2C(=O)NC2(CCC2)C(=O)N(C)[C@@H](C2CCCC2)C(=O)N(CC)[C@H](C(=O)N2CCOCC2)CC(=O)N1C [PP1955] ([NMeNva]I[NMeA][Aze][NPrPhe(4-CF3)][Sar][hPhe(3-Cl-4-CF3)]P[Ac4c][NMeGly(cPent)][NEtAsp]-Morpholide; lactam N-11) | 4.4 nM | B (a compound having 3 or more and less than 10 is denoted as B) | C (A compound having a KD ratio of 0.1 or more and less than 3 is denoted as C)
2 | CCCN1C(=O)CN(C)C(=O)CN(C)C(=O)[C@H]([C@@H](C)CC)NC(=O)[C@H](CC(C)C)N(C)C(=O)C[C@@H](C(=O)N(C)C)N(CC)C(=O)[C@H](C2CCCC2)N(C)C(=O)C2(CCC2)NC(=O)[C@@H]2CCCN2C(=O)[C@H](CCc2ccc(C(F)(F)F)c(Cl)c2)NC(=O)CN(C)C(=O)[C@@H]1Cc1ccc(C(F)(F)F)cc1 [PP1956] ([NMeL]I[Sar][Sar][NPrPhe(4-CF3)][Sar][hPhe(3-Cl-4-CF3)]P[Ac4c][NMeGly(cPent)][NEtAsp]-NMe2; lactam N-11) | 2.2 nM | B (a compound having 3 or more and less than 10 is denoted as B) | B (a compound having 3 or more and less than 10 is denoted as B)
3 | CCCN1C(=O)[C@@H]2CCN2C(=O)[C@H](C)N(C)C(=O)[C@H]([C@@H](C)CC)NC(=O)[C@H](CC(C)C)N(C)C(=O)C[C@@H](C(=O)N(C)C)N(CC)C(=O)[C@H](C2CCCC2)N(C)C(=O)C2(CCC2)NC(=O)[C@@H]2CCCN2C(=O)[C@H](CCc2ccc(C(F)(F)F)c(Cl)c2)NC(=O)CN(C)C(=O)[C@@H]1Cc1ccc(C(F)(F)F)cc1 [PP1957] ([NMeL]I[NMeA][Aze][NPrPhe(4-CF3)][Sar][hPhe(3-Cl-4-CF3)]P[Ac4c][NMeGly(cPent)][NEtAsp]-NMe2; lactam N-11) | 8.6 nM | B (a compound having 3 or more and less than 10 is denoted as B) | C (A compound having a KD ratio of 0.1 or more and less than 3 is denoted as C)
4 | CCCN1C(=O)CN(C)C(=O)CN(C)C(=O)[C@H]([C@@H](C)CC)NC(=O)[C@H](CC(C)C)N(C)C(=O)C[C@@H](C(=O)N2CCOCC2)N(C)C(=O)[C@H](C(CC)CC)N(C)C(=O)C2(CCC2)NC(=O)[C@@H]2CCCN2C(=O)[C@H](CCc2ccc(C(F)(F)F)c(Cl)c2)NC(=O)CN(C)C(=O)[C@@H]1Cc1ccc(C(F)(F)F)cc1 [PP1958] ([NMeL]I[Sar][Sar][NPrPhe(4-CF3)][Sar][hPhe(3-Cl-4-CF3)]P[Ac4c][NMeNva(3-Et)][NMeD]-Morpholide; lactam N-11) | 57.8 nM | B (a compound having 3 or more and less than 10 is denoted as B) | B (a compound having 3 or more and less than 10 is denoted as B)
5 | CCC[C@H]1C(=O)N[C@@H]([C@@H](C)CC)C(=O)N(C)[C@@H](C)C(=O)N2CC[C@H]2C(=O)N(CCC)[C@@H](Cc2ccc(C(F)(F)F)cc2)C(=O)N(C)CC(=O)N[C@@H](CCc2ccc(C(F)(F)F)c(Cl)c2)C(=O)N2CCC[C@H]2C(=O)NC2(CCC2)C(=O)N(C)[C@@H](C(CC)CC)C(=O)N(C)[C@H](C(=O)N2CCOCC2)CC(=O)N1C [PP1959] ([NMeNva]I[NMeA][Aze][NPrPhe(4-CF3)][Sar][hPhe(3-Cl-4-CF3)]P[Ac4c][NMeNva(3-Et)][NMeD]-Morpholide; lactam N-11) | 14.7 nM | B (a compound having 3 or more and less than 10 is denoted as B) | C (A compound having a KD ratio of 0.1 or more and less than 3 is denoted as C)
6 | CCCN1C(=O)CN(C)C(=O)CN(C)C(=O)[C@H]([C@@H](C)CC)NC(=O)[C@H](CC(C)C)N(C)C(=O)C[C@@H](C(=O)N(C)C)N(C)C(=O)[C@H](C(CC)CC)N(C)C(=O)C2(CCC2)NC(=O)[C@@H]2CCCN2C(=O)[C@H](CCc2ccc(C(F)(F)F)c(Cl)c2)NC(=O)CN(C)C(=O)[C@@H]1Cc1ccc(C(F)(F)F)cc1 [PP1960] ([NMeL]I[Sar][Sar][NPrPhe(4-CF3)][Sar][hPhe(3-Cl-4-CF3)]P[Ac4c][NMeNva(3-Et)][NMeD]-NMe2; lactam N-11) | 6 nM | C (A compound having a KD ratio of 0.1 or more and less than 3 is denoted as C) | B (a compound having 3 or more and less than 10 is denoted as B)
7 | CCCN1C(=O)[C@@H]2CCN2C(=O)[C@H](C)N(C)C(=O)[C@H]([C@@H](C)CC)NC(=O)[C@H](CC(C)C)N(C)C(=O)C[C@@H](C(=O)N(C)C)N(C)C(=O)[C@H](C(CC)CC)N(C)C(=O)C2(CCC2)NC(=O)[C@@H]2CCCN2C(=O)[C@H](CCc2ccc(C(F)(F)F)c(Cl)c2)NC(=O)CN(C)C(=O)[C@@H]1Cc1ccc(C(F)(F)F)cc1 [PP1961] ([NMeL]I[NMeA][Aze][NPrPhe(4-CF3)][Sar][hPhe(3-Cl-4-CF3)]P[Ac4c][NMeNva(3-Et)][NMeD]-NMe2; lactam N-11) | 8 nM | C (A compound having a KD ratio of 0.1 or more and less than 3 is denoted as C) | C (A compound having a KD ratio of 0.1 or more and less than 3 is denoted as C)
8 | CCCN1C(=O)CN(C)C(=O)CN(C)C(=O)[C@H]([C@@H](C)OC)NC(=O)[C@H](CC(C)C)N(C)C(=O)C[C@@H](C(=O)N2CCOCC2)N(C)C(=O)[C@H](C2CCCC2)N(C)C(=O)C2(CC(C)(C)C2)NC(=O)[C@@H]2CCCN2C(=O)[C@H](CCc2ccc(C(F)(F)F)c(Cl)c2)NC(=O)CN(C)C(=O)[C@@H]1Cc1ccc(C(F)(F)F)cc1 [PP1963] ([NMeL]T(Me)[Sar][Sar][NPrPhe(4-CF3)][Sar][hPhe(3-Cl-4-CF3)]P[Ac4c(3,3-Me2)][NMeGly(cPent)][NMeD]-Morpholide; lactam N-11) | 9.1 nM | C (A compound having a KD ratio of 0.1 or more and less than 3 is denoted as C) | B (a compound having 3 or more and less than 10 is denoted as B)

Further lines, with some results ahead:

Row | IC50 [1] | SMILES | HRAS /KRAS (HRAS wild-type protein) | NRAS /KRAS [2]
9 | 10.3 nM | CCCN1C(=O)CN(C)C(=O)CN(C)C(=O)[C@H]([C@@H](C)OCC)NC(=O)[C@H](CC(C)C)N(C)C(=O)C[C@@H](C(=O)N2CCOCC2)N(C)C(=O)[C@H](C2CCCC2)N(C)C(=O)C2(CC(C)(C)C2)NC(=O)[C@@H]2CCCN2C(=O)[C@H](CCc2ccc(C(F)(F)F)c(Cl)c2)NC(=O)CN(C)C(=O)[C@@H]1Cc1ccc(C(F)(F)F)cc1 [PP1964] ([NMeL]T(Et)[Sar][Sar][NPrPhe(4-CF3)][Sar][hPhe(3-Cl-4-CF3)]P[Ac4c(3,3-Me2)][NMeGly(cPent)][NMeD]-Morpholide; lactam N-11) | B (a compound having 3 or more and less than 10 is denoted as B) | B (a compound having 3 or more and less than 10 is denoted as B)
10 | 17.4 nM | CCCO[C@H](C)[C@@H]1NC(=O)[C@H](CC(C)C)N(C)C(=O)C[C@@H](C(=O)N2CCOCC2)N(C)C(=O)[C@H](C2CCCC2)N(C)C(=O)C2(CC(C)(C)C2)NC(=O)[C@@H]2CCCN2C(=O)[C@H](CCc2ccc(C(F)(F)F)c(Cl)c2)NC(=O)CN(C)C(=O)[C@H](Cc2ccc(C(F)(F)F)cc2)N(CCC)C(=O)CN(C)C(=O)CN(C)C1=O [PP1965] ([NMeL]T(Propyl)[Sar][Sar][NPrPhe(4-CF3)][Sar][hPhe(3-Cl-4-CF3)]P[Ac4c(3,3-Me2)][NMeGly(cPent)][NMeD]-Morpholide; lactam N-11) | B (a compound having 3 or more and less than 10 is denoted as B) | B (a compound having 3 or more and less than 10 is denoted as B)
11 | 10.9 nM | CCCN1C(=O)CN(C)C(=O)CNC(=O)[C@H]([C@@H](C)CC)NC(=O)[C@H](CC(C)C)N(CC)C(=O)C[C@@H](C(=O)N2CCOCC2)N(C)C(=O)[C@H](C2CCCC2)N(C)C(=O)C2(CCCC2)NC(=O)[C@@H]2CCCN2C(=O)[C@H](CCc2ccc(C(F)(F)F)c(Cl)c2)NC(=O)CN(C)C(=O)[C@@H]1Cc1ccc(C(F)(F)F)cc1 [PP1967] ([NEtLeu]IG[Sar][NPrPhe(4-CF3)][Sar][hPhe(3-Cl-4-CF3)]P[Ac5c][NMeGly(cPent)][NMeD]-Morpholide; lactam N-11) | B (a compound having 3 or more and less than 10 is denoted as B) | B (a compound having 3 or more and less than 10 is denoted as B)
12 | 13.5 nM | CCCN1C(=O)CN(CC)C(=O)CNC(=O)[C@H]([C@@H](C)CC)NC(=O)[C@H](CC(C)C)N(C)C(=O)C[C@@H](C(=O)N2CCOCC2)N(C)C(=O)[C@H](C2CCCC2)N(C)C(=O)C2(CCCC2)NC(=O)[C@@H]2CCCN2C(=O)[C@H](CCc2ccc(C(F)(F)F)c(Cl)c2)NC(=O)CN(C)C(=O)[C@@H]1Cc1ccc(C(F)(F)F)cc1 [PP1968] ([NMeL]IG[NEtG][NPrPhe(4-CF3)][Sar][hPhe(3-Cl-4-CF3)]P[Ac5c][NMeGly(cPent)][NMeD]-Morpholide; lactam N-11) | C (A compound having a KD ratio of 0.1 or more and less than 3 is denoted as C) | C (A compound having a KD ratio of 0.1 or more and less than 3 is denoted as C)
